Data on 26 molecules can be found in patent US8507509B2, “Saturated and insaturated bi- or tricyclic aryloxyacetamine derivatives and their use as fungicides” (Syngenta Crop Protection LLC, priority 2007, dated 2013).

Assay [1] concerns Plasmopara viticola. Nature of the assay: Plasmopara viticola (downy mildew of grapevine), grapevine leaf disk assay, preventive. In kind it is in vivo. The settings on record: foliar, 168 h, 200 ppm, grapevine leaf disks, assessed seven days after inoculation, read-out: control of fungal infection, Plasmopara viticola.
The subject of assay [2] is Septoria tritici. The assay is described as follows: Septoria tritici (leaf blotch), liquid culture growth inhibition in nutrient broth. In kind it is cell-based. The settings on record: Zymoseptoria tritici; 200 ppm; PDB broth, 24 C; inhibition of growth determined photometrically after 72 hrs; read-out: control of fungal infection, Septoria tritici.
Assay [3] relates to Pythium ultimum. The assay is described as follows: Pythium ultimum (Damping off), liquid culture growth inhibition in potato dextrose broth. In kind it is cell-based. The settings on record: Globisporangium ultimum; 20 ppm; potato dextrose broth, 24° C.; inhibition of growth determined photometrically after 48 hours; read-out: control of fungal infection, Pythium ultimum.
The test system of assay [4] is Phytophthora infestans. The assay is described as follows: whole plant or invertebrate. The following applies: in Solanum lycopersicum, foliar, 96 h, read-out: control of fungal infection, Phytophthora infestans. The assay is classed as in vivo.
For assay [5], the system named is Erysiphe graminis f.sp. tritici. Nature of the assay: Erysiphe graminis f.sp. tritici (wheat powdery mildew), wheat leaf segment assay, preventive. In kind it is in vivo. The following applies: Blumeria graminis, foliar, 96 h; 200 ppm; wheat leaf segments; assessed four days after inoculation; read-out: control of fungal infection, Etysiphe graminis f.sp. tritici.

A value given as a limit tells only on which side of the number the result lay.

Consider `CON=CC(C)(C)NC(=O)C(Cc1cc(C)c2ccsc2c1)SC` (stereo not drawn) [Compound No. 82, N-(2-Methoxyimino-1,1-dimethyl-ethyl)-3-(4-methyl-benzo[b]thiophen-6-yl)-2-methylsulfanyl-propionamide], for which, in assay [1], the pest or weed control at 200 ppm was not below 60%. Also, the inhibition of growth at 200 ppm in assay [2] is not below 60%. Also, the inhibition of growth at 20 ppm in assay [3] is not below 60%.

Regarding `C=CCON=C(Cc1ccsc1)C(C)(C)NC(=O)C(Oc1ccc2ncc(Br)cc2c1)SC` (stereo not drawn) [Compound No. 126, N-{2-[(E or Z)-Allyloxyimino]-1,1-dimethyl-3-thiophen-3-yl-propyl}-2-(3-bromo-quinolin-6-yloxy)-2-methylsulfanyl-acetamide], the pest or weed control at 200 ppm in assay [1] is not below 60%. The inhibition of growth at 200 ppm in assay [2] was not below 60%.

`CSC(Oc1ccc2ncc(Br)cc2c1)C(=O)NC(C)(C)C=NOCc1ccccc1` (stereo not drawn) [Compound No. 109, N-(2-Benzyloxyimino-1,1-dimethyl-ethyl)-2-(3-bromo-quinolin-6-yloxy)-2-methylsulfanyl-acetamide]: the pest or weed control at 200 ppm in assay [1] and in assay [4] was not below 60% throughout. The inhibition of growth at 200 ppm in assay [2] was not below 60%.

With `CSC(Oc1ccc2ncc(Br)cc2c1)C(=O)NC(C)(C)C=NOC(C)(C)C` (stereo not drawn) [Compound No. 12, 2-(3-Bromo-quinolin-6-yloxy)-N-(2-tert-butoxyimino-1,1-dimethyl-ethyl)-2-methylsulfanyl-acetamide], the inhibition of growth at 200 ppm in assay [2] is not below 60%. The inhibition of growth at 20 ppm in assay [3] was not below 60%.

As to `CSC(Oc1ccc2ncc(Br)cc2c1)C(=O)NC(C)(C)C=NOCc1ccc(Cl)cc1` (stereo not drawn) [Compound No. 9, 2-(3-Bromo-quinolin-6-yloxy)-N-[2-(4-chloro-benzyloxyimino)-1,1-dimethyl-ethyl]-2-methylsulfanyl-acetamide], the inhibition of growth at 200 ppm in assay [2] was not below 60%.

Regarding `CCCCON=CC(C)(C)NC(=O)C(Oc1cc(C)c2ncc(Br)cc2c1)SC` (stereo not drawn) [Compound No. 30, 2-(3-Bromo-8-methyl-quinolin-6-yloxy)-N-(2-butoxyimino-1,1-dimethyl-ethyl)-2-methylsulfanyl-acetamide], the inhibition of growth at 200 ppm in assay [2] is not below 60%.

As to `CCON=C(Cc1ccccn1)C(C)(C)NC(=O)C(Oc1ccc2ncc(Br)cc2c1)SC` (stereo not drawn) [Compound No. 128, 2-(3-Bromo-quinolin-6-yloxy)-N-{2-[(E or Z)-ethoxyimino]-1,1-dimethyl-3-pyridin-2-yl-propyl}-2-methylsulfanyl-acetamide], the inhibition of growth at 200 ppm in assay [2] was not below 60%. The inhibition of growth at 20 ppm in assay [3] is not below 60%.

Consider `CSC(Oc1cc(C)c2ncc(I)cc2c1)C(=O)NC(C)(C)CC=NOCc1ccccc1` (stereo not drawn) [Compound No. 47, N-(3-Benzyloxyimino-1,1-dimethyl-propyl)-2-(3-iodo-8-methyl-quinolin-6-yloxy)-2-methylsulfanyl-acetamide], for which the pest or weed control at 200 ppm in assay [1] was not below 60%. Also, the inhibition of growth at 200 ppm in assay [2] is not below 60%.

With `CON=CC(C)(C)NC(=O)C(Oc1ccc2ncc(C#C[Si](C)(C)C)cc2c1)SC` (stereo not drawn) [Compound No. 37, N-(2-methoxyimino-1,1-dimethyl-ethyl)-2-methylsulfanyl-2-(3-trimethylsilanylethynyl-quinolin-6-yloxy)-acetamide], the pest or weed control at 200 ppm in assay [1], in assay [4] and in assay [5] was not below 60% each time. In assay [2], the inhibition of growth at 200 ppm was not below 60%.

On to `CSC(Oc1cc(C)c2ncc(I)cc2c1)C(=O)NC(C)(C)CC=NOC(C)(C)C` (stereo not drawn) [Compound No. 43, N-(3-tert-Butoxyimino-1,1-dimethyl-propyl)-2-(3-iodo-8-methyl-quinolin-6-yloxy)-2-methylsulfanyl-acetamide], for which the inhibition of growth at 200 ppm in assay [2] was not below 60%.

Regarding `C=CCON=CC(C)(C)NC(=O)C(Oc1cc(C)c2ncc(Br)cc2c1)SC` (stereo not drawn) [Compound No. 28, N-(2-Allyloxyimino-1,1-dimethyl-ethyl)-2-(3-bromo-8-methyl-quinolin-6-yloxy)-2-methylsulfanyl-acetamide], the pest or weed control at 200 ppm in assay [1] is not below 60%. For the same molecule, in assay [2], the inhibition of growth at 200 ppm is not below 60%.

Regarding `C#Cc1cnc2c(C)cc(OC(CC)C(=O)NC(C)(C)C=NOC(C)(C)C)cc2c1` (stereo not drawn) [Compound No. 137, N-(2-tert-Butoxyimino-1,1-dimethyl-ethyl)-2-(3-ethynyl-8-methyl-quinolin-6-yloxy)-butyramide], the pest or weed control at 200 ppm in assay [5] was not below 60%. Further, in assay [2], the inhibition of growth at 200 ppm was not below 60%.

As to `CCON=C(Cc1ccsc1)C(C)(C)NC(=O)C(Oc1ccc2ncc(Br)cc2c1)SC` (stereo not drawn) [Compound No. 125, 2-(3-Bromo-quinolin-6-yloxy)-N-{2-[(E or Z)-ethoxyimino]-1,1-dimethyl-3-thiophen-3-yl-propyl}-2-methylsulfanyl-acetamide], the pest or weed control at 200 ppm in assay [1] is not below 60%. The inhibition of growth at 200 ppm in assay [2] was not below 60%.

Consider `CON=C(C)CC(C)(C)NC(=O)C(Oc1ccc2ncc(Br)cc2c1)SC` (stereo not drawn) [Compound No. 104, 2-(3-Bromo-quinolin-6-yloxy)-N-(3-methoxyimino-1,1-dimethyl-butyl)-2-methylsulfanyl-acetamide], for which the pest or weed control at 200 ppm in assay [1], in assay [4] and in assay [5] was not below 60% in each case.

Take `CCc1cc(OC(SC)C(=O)NC(C)(C)C=NOC)cc2cc(Br)cnc12` (stereo not drawn) [Compound No. 133, 2-(3-Bromo-8-ethyl-quinolin-6-yloxy)-N-(2-methoxyimino-1,1-dimethyl-ethyl)-2-methylsulfanyl-acetamide]: the pest or weed control at 200 ppm in assay [1] was not below 60%. Also, the inhibition of growth at 200 ppm in assay [2] was not below 60%.

In the case of `CCON=CC(C)(C)NC(=O)C(Oc1cc(Cl)c2ncc(Br)cc2c1)SC` (stereo not drawn) [Compound No. 36, 2-(3-Bromo-8-chloro-quinolin-6-yloxy)-N-(2-ethoxyimino-1,1-dimethyl-ethyl)-2-methylsulfanyl-acetamide], the pest or weed control at 200 ppm in assay [1] and in assay [5] was not below 60% throughout. The inhibition of growth at 200 ppm in assay [2] was not below 60%.

As to `CSC(Oc1cc(C)c2ncc(Br)cc2c1)C(=O)NC(C)(C)C=NOC(C)(C)C` (stereo not drawn) [Compound No. 22, 2-(3-Bromo-8-methyl-quinolin-6-yloxy)-N-(2-tert-butoxyimino-1,1-dimethyl-ethyl)-2-methylsulfanyl-acetamide], the inhibition of growth at 200 ppm in assay [2] was not below 60%.

Regarding `C#Cc1cnc2c(C)cc(OC(CC)C(=O)NC(C)(C)C=NOCC(C)C)cc2c1` (stereo not drawn) [Compound No. 136, 2-(3-Ethynyl-8-methyl-quinolin-6-yloxy)-N-(2-isobutoxyimino-1,1-dimethyl-ethyl)-butyramide], in assay [2], the inhibition of growth at 200 ppm was not below 60%.

Regarding `CCOC(=O)C(C)(C)O/N=C/C(C)(C)NC(=O)C(Oc1cc(C)c2ncc(Br)cc2c1)SC` (stereo not drawn) [Compound No. 24, 2-[2-[2-(3-Bromo-8-methyl-quinolin-6-yloxy)-2-methylsulfanyl-acetylamino]-2-methyl-prop-(E)-ylideneaminooxy]-2-methyl-propionic acid ethyl ester], the inhibition of growth at 200 ppm in assay [2] was not below 60%.

On to `CSC(Oc1cc(C)c2ncc(Br)cc2c1)C(=O)NC(C)(C)C=NOCC(C)C` (stereo not drawn) [Compound No. 25, 2-(3-Bromo-8-methyl-quinolin-6-yloxy)-N-(2-isobutoxyimino-1,1-dimethyl-ethyl)-2-methylsulfanyl-acetamide], for which the inhibition of growth at 200 ppm in assay [2] was not below 60%.

With `CSC(Oc1ccc2ncc(Br)cc2c1)C(=O)NC(C)(C)C=NOCC(C)C` (stereo not drawn) [Compound No. 18, 2-(3-Bromo-quinolin-6-yloxy)-N-(2-iso-butoxyimino-1,1-dimethyl-ethyl)-2-methylsulfanyl-acetamide], the pest or weed control at 200 ppm in assay [1] was not below 60%. Further, in assay [2], the inhibition of growth at 200 ppm was not below 60%.

Consider `CON=CC(C)(C)NC(=O)C(Oc1cc(Cl)c2ncc(Br)cc2c1)SC` (stereo not drawn) [Compound No. 35, 2-(3-Bromo-8-chloro-quinolin-6-yloxy)-N-(2-methoxyimino-1,1-dimethyl-ethyl)-2-methylsulfanyl-acetamide], for which the inhibition of growth at 200 ppm in assay [2] was not below 60%. Moreover, in assay [3], the inhibition of growth at 20 ppm is not below 60%.

For `C=CCON=CC(C)(C)NC(=O)C(CC)Oc1cc(C)c2ncc(I)cc2c1` (stereo not drawn) [Compound No. 7, N-(2-allyloxyimino-1,1-dimethyl-ethyl)-2-(3-iodo-8-methyl-quinolin-6-yloxy)-butyramide], the pest or weed control at 200 ppm in assay [5] is not below 60%. In addition, the inhibition of growth at 200 ppm in assay [2] is not below 60%.

Turning to `CCON=CC(C)(C)NC(=O)C(CC)Oc1ccc2ncc(I)cc2c1` (stereo not drawn) [Compound No. 3, N-(2-Ethoxyimino-1,1-dimethyl-ethyl)-2-(3-iodo-quinolin-6-yloxy)-butyramide], the pest or weed control at 200 ppm in assay [1], in assay [4] and in assay [5] was not below 60% each time. Also, in assay [2], the inhibition of growth at 200 ppm is not below 60%.

Take `CON=CCC(C)(C)NC(=O)C(Oc1ccc2ncc(I)cc2c1)SC` (stereo not drawn) [Compound No. 92, 2-(3-iodo-quinolin-6-yloxy)-N-(3-methoxyimino-1,1-dimethyl-propyl)-2-methylsulfanyl-acetamide]: in assay [3], the inhibition of growth at 20 ppm was not below 60%.

With `CSC(Oc1cc(C)c2ncc(Br)cc2c1)C(=O)NC(C)(C)C=NOCc1ccccc1` (stereo not drawn) [Compound No. 110, N-(2-Benzyloxyimino-1,1-dimethyl-ethyl)-2-(3-bromo-8-methyl-quinolin-6-yloxy)-2-methylsulfanyl-acetamide], the inhibition of growth at 200 ppm in assay [2] was not below 60%.
